In article PMC5007443, “TNIK inhibition abrogates colorectal cancer stemness” (Nature Communications, 2016):
Where “and” joins values, the source holds several entries; their conditions need not be identical. Equal values may be shown once.

Tests used:
ITK = ITK (Homo sapiens, UniProt Q08881); experiment: Kinase selectivity profiling, IL2-inducible T-cell kinase; assay type: biochemical; details: read-out: Percentage inhibition of ITK
Protocol: (§1) The selectivity of compounds against a panel of 50 human protein kinases was assessed using a non-radiometric assay.

HCT116 cells [1] = experiment: Cell cycle analysis by flow cytometry; assay type: cell-based, human; details: HCT116, 3 μM
Protocol: Cells were dissociated with Accutase, fixed with 70% EtOH at −20 °C, stained with Guava Cell Cycle reagent (Merck-Millipore) in accordance with the manufacturer's instructions, and analysed using a Guava easy Cyte HT flow cytometer (Merck-Millipore). Cell doublets were eliminated by doublet discrimination gating. Data were analyzed using FLOWJO version 10 software (Treestar; Fig. 3e). Experiments were performed in triplicate and repeated at least two times.

SRC = SRC (Homo sapiens, UniProt P12931); experiment: Kinase selectivity profiling, v-Src sarcoma viral oncogene homolog; assay type: biochemical; details: read-out: Percentage inhibition of SRC
Protocol: as §1

PYK2 = PYK2 (Homo sapiens, UniProt Q14289); experiment: Kinase selectivity profiling, Proline-rich tyrosine kinase 2; assay type: biochemical; details: read-out: Percentage inhibition of PYK2
Chain of PYK2 (Q14289 whole entry): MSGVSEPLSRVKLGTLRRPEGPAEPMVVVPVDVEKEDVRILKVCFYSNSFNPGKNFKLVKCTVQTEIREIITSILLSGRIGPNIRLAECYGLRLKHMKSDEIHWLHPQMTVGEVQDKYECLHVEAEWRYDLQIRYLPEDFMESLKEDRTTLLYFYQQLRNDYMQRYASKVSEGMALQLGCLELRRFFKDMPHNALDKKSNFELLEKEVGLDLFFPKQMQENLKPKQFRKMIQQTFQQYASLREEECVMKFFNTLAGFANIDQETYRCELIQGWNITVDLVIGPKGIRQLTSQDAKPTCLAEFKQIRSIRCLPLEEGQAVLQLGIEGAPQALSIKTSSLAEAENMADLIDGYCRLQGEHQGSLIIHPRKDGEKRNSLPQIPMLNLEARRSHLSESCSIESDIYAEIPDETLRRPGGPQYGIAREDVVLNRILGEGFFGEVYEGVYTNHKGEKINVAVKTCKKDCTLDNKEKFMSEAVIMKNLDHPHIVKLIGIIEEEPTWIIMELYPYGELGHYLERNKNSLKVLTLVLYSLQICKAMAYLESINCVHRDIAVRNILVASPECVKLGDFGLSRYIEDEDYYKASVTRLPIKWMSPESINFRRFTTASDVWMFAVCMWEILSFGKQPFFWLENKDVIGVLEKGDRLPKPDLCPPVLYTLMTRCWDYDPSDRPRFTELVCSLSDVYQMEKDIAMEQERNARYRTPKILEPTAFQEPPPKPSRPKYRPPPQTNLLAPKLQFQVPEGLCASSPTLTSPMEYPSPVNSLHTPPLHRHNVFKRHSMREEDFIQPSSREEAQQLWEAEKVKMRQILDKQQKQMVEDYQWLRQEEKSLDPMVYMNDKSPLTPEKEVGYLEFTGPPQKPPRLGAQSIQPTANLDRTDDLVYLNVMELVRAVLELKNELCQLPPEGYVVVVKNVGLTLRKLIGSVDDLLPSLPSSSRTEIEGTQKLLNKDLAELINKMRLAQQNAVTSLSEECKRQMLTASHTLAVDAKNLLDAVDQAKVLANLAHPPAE
Protocol: as §1

DLD-1 cells [2] = experiment: Limiting dilution analysis of sphere formation, DLD-1; assay type: cell-based, human
Protocol: (§2) One million HCT116 and DLD-1 cells were seeded onto 60-mm plates and treated with vehicle (DMSO) or compounds (0.1, 0.3 or 1.0 μM) for either 3 or 4 days. After washing off the compounds, the cells were dissociated to single cells in serum-free DMEM/F12 medium (Thermo Fisher Scientific) containing B27 (Thermo Fisher Scientific), 20 ng ml^−1 epidermal growth factor (EGF; Thermo Fisher Scientific), 10 ng ml^−1 basic fibroblast factor (bFGF; Thermo Fisher Scientific), 5 μg ml^−1 insulin (Thermo Fisher Scientific), 0.4% bovine serum albumin (Sigma-Aldrich) and 2 mM L-glutamine (Thermo Fisher Scientific). One hundred, 10 or 1 viable (determined by trypan-blue dye exclusion) cells were seeded into each well of a 96-well U-bottom PrimeSurface plate (Sumitomo Bakelite). Ten days later, the number of wells showing sphere formation was counted. The frequency of sphere-forming cells was calculated using ELDA software (http://bioinf.wehi.edu.au/software/elda/index.html) provided by the Walter and Eliza Hall Institute (Fig. 5c; Supplementary Table 2). Experiments were performed in triplicate and repeated at least two times.

CDK2/CycA2 = CDK2/CycA2 (Homo sapiens, UniProt P24941); experiment: Kinase selectivity profiling, Cyclin-dependent kinase 2/cyclin A2; assay type: biochemical; details: 0.1 µM inhibitor, ATP at Km; 0.1 µM
Protocol: as §1

TYRO3 = TYRO3 (Homo sapiens, UniProt Q06418); experiment: Kinase selectivity profiling, Tyro3 receptor tyrosine kinase; assay type: biochemical; details: read-out: Percentage inhibition of TYRO3
Protocol: as §1

PKCα = PKCα (Homo sapiens, UniProt P17252); experiment: Kinase selectivity profiling, Protein kinase C-α; assay type: biochemical; details: read-out: Percentage inhibition of PKCα
Protocol: as §1

DYRK1B = DYRK1B (Homo sapiens, UniProt Q9Y463); experiment: Kinase selectivity profiling, Dual-specificity tyrosine-phosphorylation regulated kinase 1B; assay type: biochemical; details: read-out: Percentage inhibition of DYRK1B
Chain of DYRK1B (Q9Y463 whole entry): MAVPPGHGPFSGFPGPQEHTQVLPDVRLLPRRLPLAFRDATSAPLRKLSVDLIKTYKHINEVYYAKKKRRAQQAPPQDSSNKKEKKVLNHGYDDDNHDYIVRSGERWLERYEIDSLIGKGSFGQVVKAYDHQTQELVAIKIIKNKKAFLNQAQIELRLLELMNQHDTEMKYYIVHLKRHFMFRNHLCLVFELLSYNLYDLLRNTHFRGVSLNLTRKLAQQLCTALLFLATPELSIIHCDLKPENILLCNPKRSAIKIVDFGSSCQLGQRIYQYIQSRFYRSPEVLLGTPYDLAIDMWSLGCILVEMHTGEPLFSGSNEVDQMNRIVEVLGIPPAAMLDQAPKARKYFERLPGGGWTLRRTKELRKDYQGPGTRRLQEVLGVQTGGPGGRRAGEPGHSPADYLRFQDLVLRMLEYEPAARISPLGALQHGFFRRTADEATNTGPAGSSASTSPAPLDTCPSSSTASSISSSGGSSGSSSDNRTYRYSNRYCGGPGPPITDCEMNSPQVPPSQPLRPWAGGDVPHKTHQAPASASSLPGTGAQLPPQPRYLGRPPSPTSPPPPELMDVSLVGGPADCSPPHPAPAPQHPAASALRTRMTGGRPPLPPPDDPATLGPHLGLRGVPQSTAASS
Protocol: as §1

HCT116 cells [3] = experiment: Limiting dilution analysis of sphere formation, HCT116; assay type: cell-based, human
Protocol: as §2

DLD-1 cells [4] = experiment: In vivo tumorigenicity of pretreated DLD-1 cells in NOD/ShiJic-scid mice; parameters: species or system mouse; details: DLD-1, short-term in vitro treatment
Protocol: After washing off the compounds, 10,000, 1,000, 100 or 10 viable cells in culture medium containing 50% Matrigel (BD Biosciences) were injected subcutaneously into the flanks of NOD/ShiJic-scid Jcl (6-week-old male) mice. The number of mice that developed tumours was counted, and the frequency of cells with tumour-forming capability was calculated using the ELDA software.

ABL = ABL (Homo sapiens, UniProt P00519); experiment: Kinase selectivity profiling, c-Abl oncogene 1; assay type: biochemical; details: read-out: Percentage inhibition of ABL
Protocol: as §1

p70S6K = p70S6K (Homo sapiens, UniProt P23443); experiment: Kinase selectivity profiling, Ribosomal protein S6 kinase; assay type: biochemical; details: read-out: Percentage inhibition of p70S6K
Chain of p70S6K (P23443 whole entry): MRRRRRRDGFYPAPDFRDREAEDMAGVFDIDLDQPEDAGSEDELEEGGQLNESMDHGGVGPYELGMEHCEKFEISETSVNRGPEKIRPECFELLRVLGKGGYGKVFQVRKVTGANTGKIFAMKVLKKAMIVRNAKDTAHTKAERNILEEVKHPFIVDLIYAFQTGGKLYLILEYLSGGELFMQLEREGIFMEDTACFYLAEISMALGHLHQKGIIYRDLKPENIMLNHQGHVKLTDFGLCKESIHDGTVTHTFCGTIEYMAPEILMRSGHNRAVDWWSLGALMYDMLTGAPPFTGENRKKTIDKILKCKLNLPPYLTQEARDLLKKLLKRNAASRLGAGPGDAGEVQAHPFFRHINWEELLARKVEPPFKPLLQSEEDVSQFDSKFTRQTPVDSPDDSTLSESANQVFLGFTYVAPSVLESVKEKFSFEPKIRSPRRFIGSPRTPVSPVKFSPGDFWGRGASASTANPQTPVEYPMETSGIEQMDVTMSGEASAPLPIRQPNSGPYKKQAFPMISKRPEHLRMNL
Protocol: as §1

FLT3 = FLT3 (Homo sapiens, UniProt P36888); experiment: Kinase selectivity profiling, Fms-related tyrosine kinase 3; assay type: biochemical; details: 0.1 µM inhibitor, ATP at Km; 0.1 µM
Chain of FLT3 (P36888 27-993): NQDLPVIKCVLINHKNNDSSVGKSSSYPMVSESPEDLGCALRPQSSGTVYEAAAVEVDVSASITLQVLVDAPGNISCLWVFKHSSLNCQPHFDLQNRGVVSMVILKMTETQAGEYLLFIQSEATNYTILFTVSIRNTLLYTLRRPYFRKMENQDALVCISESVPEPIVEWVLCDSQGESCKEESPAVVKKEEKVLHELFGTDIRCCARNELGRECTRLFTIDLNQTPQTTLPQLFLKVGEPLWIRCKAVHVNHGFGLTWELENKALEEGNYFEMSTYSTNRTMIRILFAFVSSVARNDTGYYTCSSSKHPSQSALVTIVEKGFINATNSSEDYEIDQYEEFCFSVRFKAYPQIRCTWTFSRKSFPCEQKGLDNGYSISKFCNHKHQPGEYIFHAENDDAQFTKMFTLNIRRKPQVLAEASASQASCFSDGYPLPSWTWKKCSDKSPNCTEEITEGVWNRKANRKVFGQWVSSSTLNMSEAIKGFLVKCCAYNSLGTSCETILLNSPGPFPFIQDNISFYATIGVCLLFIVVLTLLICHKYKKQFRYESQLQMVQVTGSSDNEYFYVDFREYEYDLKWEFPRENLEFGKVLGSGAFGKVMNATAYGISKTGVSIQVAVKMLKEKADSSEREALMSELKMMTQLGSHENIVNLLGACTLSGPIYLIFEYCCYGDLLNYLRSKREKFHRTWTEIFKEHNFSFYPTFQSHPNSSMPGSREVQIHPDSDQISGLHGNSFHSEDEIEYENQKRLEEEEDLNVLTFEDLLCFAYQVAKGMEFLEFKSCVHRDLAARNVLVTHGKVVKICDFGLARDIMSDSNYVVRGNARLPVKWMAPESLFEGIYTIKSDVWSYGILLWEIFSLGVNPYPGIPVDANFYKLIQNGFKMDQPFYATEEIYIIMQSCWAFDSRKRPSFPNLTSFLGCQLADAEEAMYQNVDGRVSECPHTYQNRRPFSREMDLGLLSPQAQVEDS
Protocol: as §1

CaMK4 = CaMK4 (Homo sapiens, UniProt Q16566); experiment: Kinase selectivity profiling, Calcium/calmodulin-dependent protein kinase IV; assay type: biochemical; details: read-out: Percentage inhibition of CaMK4
Protocol: as §1

IGF1R = IGF1R (Homo sapiens, UniProt P08069); experiment: Kinase selectivity profiling, Insulin-like growth factor 1 receptor; assay type: biochemical; details: read-out: Percentage inhibition of IGF1R
Protocol: as §1

IRAK4 = IRAK4 (Homo sapiens, UniProt Q9NWZ3); experiment: Kinase selectivity profiling, Interleukin 1 receptor-associated kinase 4; assay type: biochemical; details: read-out: Percentage inhibition of IRAK4
Chain of IRAK4 (Q9NWZ3 whole entry): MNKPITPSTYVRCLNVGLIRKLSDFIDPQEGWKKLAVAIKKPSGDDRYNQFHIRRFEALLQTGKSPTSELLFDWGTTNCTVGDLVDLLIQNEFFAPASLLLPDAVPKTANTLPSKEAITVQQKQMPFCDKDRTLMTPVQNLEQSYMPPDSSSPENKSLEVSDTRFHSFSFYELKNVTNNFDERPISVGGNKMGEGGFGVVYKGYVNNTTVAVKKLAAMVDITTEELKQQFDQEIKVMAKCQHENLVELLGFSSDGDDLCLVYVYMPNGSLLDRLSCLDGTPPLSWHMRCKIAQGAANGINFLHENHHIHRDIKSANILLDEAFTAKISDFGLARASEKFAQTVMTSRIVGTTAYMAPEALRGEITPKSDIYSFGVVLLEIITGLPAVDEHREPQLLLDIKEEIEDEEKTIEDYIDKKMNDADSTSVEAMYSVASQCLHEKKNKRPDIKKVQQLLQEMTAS
Protocol: as §1

Chain of ITK (Q08881 whole entry): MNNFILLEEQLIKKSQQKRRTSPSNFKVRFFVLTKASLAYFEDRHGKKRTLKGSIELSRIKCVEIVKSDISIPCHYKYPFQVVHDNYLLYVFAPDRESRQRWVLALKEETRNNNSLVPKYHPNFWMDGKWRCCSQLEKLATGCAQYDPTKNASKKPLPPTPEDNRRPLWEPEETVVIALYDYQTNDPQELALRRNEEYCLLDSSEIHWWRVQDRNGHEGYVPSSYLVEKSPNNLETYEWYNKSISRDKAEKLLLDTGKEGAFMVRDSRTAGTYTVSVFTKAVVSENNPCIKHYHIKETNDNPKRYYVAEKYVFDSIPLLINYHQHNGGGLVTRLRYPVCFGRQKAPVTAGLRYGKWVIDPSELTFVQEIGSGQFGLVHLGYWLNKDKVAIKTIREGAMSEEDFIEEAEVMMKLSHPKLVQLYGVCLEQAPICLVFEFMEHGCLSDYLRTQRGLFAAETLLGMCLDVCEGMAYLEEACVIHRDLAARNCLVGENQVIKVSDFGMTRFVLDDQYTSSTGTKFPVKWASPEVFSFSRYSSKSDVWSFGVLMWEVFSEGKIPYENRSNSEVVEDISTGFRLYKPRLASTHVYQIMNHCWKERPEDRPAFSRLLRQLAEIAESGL

O[C@H]1CC[C@@H](Oc2cccc3cnc(Nc4ccc5nc[nH]c5c4)nc23)CC1 [NCB-0846, cis-4-(2-(3H-benzo[d]imidazol-5-ylamino)quinazolin-8-yloxy)cyclohexanol]
inhibition at 0.1 µM (ITK): 10%
>4N (%) (HCT116 cells [1]; 24 h): 6.1%
G0/G1 (%) (HCT116 cells [1]; 24 h): 20.6%
G2/M (%) (HCT116 cells [1]; 24 h): 30.6%
S (%) (HCT116 cells [1]; 24 h): 14.1%
SubG1 (%) (HCT116 cells [1]; 24 h): 28.6%
>4N (%) (HCT116 cells [1]; 48 h): 3.1%
G0/G1 (%) (HCT116 cells [1]; 48 h): 18.3%
G2/M (%) (HCT116 cells [1]; 48 h): 20.1%
S (%) (HCT116 cells [1]; 48 h): 11.1%
SubG1 (%) (HCT116 cells [1]; 48 h): 47.4%
inhibition at 0.1 µM (SRC): 19%
inhibition at 0.1 µM (PYK2): 73%
Sphere-containing wells/total wells (DLD-1 cells [2]; DLD-1, 3-day treatment, 0.1 μM, 1 cell per well): 55/96
Sphere-containing wells/total wells (DLD-1 cells [2]; DLD-1, 3-day treatment, 0.1 μM, 10 cells per well): 95/96
Sphere-containing wells/total wells (DLD-1 cells [2]; DLD-1, 3-day treatment, 0.1 μM, 100 cells per well): 96/96
Sphere-containing wells/total wells (DLD-1 cells [2]; DLD-1, 3-day treatment, 0.3 μM, 1 cell per well): 23/96
Sphere-containing wells/total wells (DLD-1 cells [2]; DLD-1, 3-day treatment, 0.3 μM, 10 cells per well): 86/96
Sphere-containing wells/total wells (DLD-1 cells [2]; DLD-1, 3-day treatment, 0.3 μM, 100 cells per well): 96/96
Sphere-containing wells/total wells (DLD-1 cells [2]; DLD-1, 3-day treatment, 1.0 μM, 1 cell per well): 3/96
Sphere-containing wells/total wells (DLD-1 cells [2]; DLD-1, 3-day treatment, 1.0 μM, 10 cells per well): 25/96
Sphere-containing wells/total wells (DLD-1 cells [2]; DLD-1, 3-day treatment, 1.0 μM, 100 cells per well): 77/96
Sphere-containing wells/total wells (DLD-1 cells [2]; DLD-1, 4-day treatment, 0.1 μM, 1 cell per well): 39/96
Sphere-containing wells/total wells (DLD-1 cells [2]; DLD-1, 4-day treatment, 0.1 μM, 10 cells per well): 92/96
Sphere-containing wells/total wells (DLD-1 cells [2]; DLD-1, 4-day treatment, 0.1 μM, 100 cells per well): 96/96
Sphere-containing wells/total wells (DLD-1 cells [2]; DLD-1, 4-day treatment, 0.3 μM, 1 cell per well): 46/96
Sphere-containing wells/total wells (DLD-1 cells [2]; DLD-1, 4-day treatment, 0.3 μM, 10 cells per well): 90/96
Sphere-containing wells/total wells (DLD-1 cells [2]; DLD-1, 4-day treatment, 0.3 μM, 100 cells per well): 95/96
Sphere-containing wells/total wells (DLD-1 cells [2]; DLD-1, 4-day treatment, 1.0 μM, 1 cell per well): 7/96
Sphere-containing wells/total wells (DLD-1 cells [2]; DLD-1, 4-day treatment, 1.0 μM, 10 cells per well): 34/96
Sphere-containing wells/total wells (DLD-1 cells [2]; DLD-1, 4-day treatment, 1.0 μM, 100 cells per well): 96/96
sphere formation activity (DLD-1 cells [2]; DLD-1, short-term (3–4 days) treatment): significantly abrogated
Percentage inhibition of CDK2/CycA2 (CDK2/CycA2): > 80% and 101.1%
inhibition at 0.1 µM (TYRO3): 48.9%
inhibition at 0.1 µM (PKCα): -0.9%
inhibition at 0.1 µM (DYRK1B): 8.9%
Sphere-containing wells/total wells (HCT116 cells [3]; HCT116, 3-day treatment, 0.1μM, 1 cell per well): 60/96
Sphere-containing wells/total wells (HCT116 cells [3]; HCT116, 3-day treatment, 0.1μM, 10 cells per well): 96/96
Sphere-containing wells/total wells (HCT116 cells [3]; HCT116, 3-day treatment, 0.1μM, 100 cells per well): 96/96
Sphere-containing wells/total wells (HCT116 cells [3]; HCT116, 3-day treatment, 0.3μM, 1 cell per well): 47/96
Sphere-containing wells/total wells (HCT116 cells [3]; HCT116, 3-day treatment, 0.3μM, 10 cells per well): 96/96
Sphere-containing wells/total wells (HCT116 cells [3]; HCT116, 3-day treatment, 0.3μM, 100 cells per well): 96/96
Sphere-containing wells/total wells (HCT116 cells [3]; HCT116, 3-day treatment, 1.0μM, 1 cell per well): 3/96
Sphere-containing wells/total wells (HCT116 cells [3]; HCT116, 3-day treatment, 1.0μM, 10 cells per well): 21/96
Sphere-containing wells/total wells (HCT116 cells [3]; HCT116, 3-day treatment, 1.0μM, 100 cells per well): 95/96
Sphere-containing wells/total wells (HCT116 cells [3]; HCT116, 4-day treatment, 0.1μM, 1 cell per well): 69/96
Sphere-containing wells/total wells (HCT116 cells [3]; HCT116, 4-day treatment, 0.1μM, 10 cells per well): 96/96
Sphere-containing wells/total wells (HCT116 cells [3]; HCT116, 4-day treatment, 0.1μM, 100 cells per well): 96/96
Sphere-containing wells/total wells (HCT116 cells [3]; HCT116, 4-day treatment, 0.3μM, 1 cell per well): 41/96
Sphere-containing wells/total wells (HCT116 cells [3]; HCT116, 4-day treatment, 0.3μM, 10 cells per well): 96/96
Sphere-containing wells/total wells (HCT116 cells [3]; HCT116, 4-day treatment, 0.3μM, 100 cells per well): 96/96
Sphere-containing wells/total wells (HCT116 cells [3]; HCT116, 4-day treatment, 1.0μM, 1 cell per well): 0/96
Sphere-containing wells/total wells (HCT116 cells [3]; HCT116, 4-day treatment, 1.0μM, 10 cells per well): 19/96
Sphere-containing wells/total wells (HCT116 cells [3]; HCT116, 4-day treatment, 1.0μM, 100 cells per well): 93/96
sphere formation activity (HCT116 cells [3]; HCT116, short-term (3–4 days) treatment): significantly abrogated
tumour formation (DLD-1 cells [4]): significantly reduced
inhibition at 0.1 µM (ABL): 16.9%
inhibition at 0.1 µM (p70S6K): 11%
Percentage inhibition of FLT3 (FLT3): > 80% and 104.1%
inhibition at 0.1 µM (CaMK4): -1.5%
inhibition at 0.1 µM (IGF1R): 10.7%
inhibition at 0.1 µM (IRAK4): 14.7%
